Laboratory results: BindingDB's records for doi:10.1016/j.bmcl.2006.01.105 (Wyeth Research, 2006)

Experiment: Antiviral activity against Hepatitis C virus replicon in Huh7 cells

With `CCCC1(C(=O)O)CCc2c1[nH]c1c(Cl)ccc(Cl)c21` (stereo unspecified) [5,8-dichloro-3-propyl-1,2,3,4-tetrahydrocyclopenta[b]indole-3-carboxylic acid] the IC50 was 27 µM.
